Where “and” joins values, the source holds several entries; their conditions need not be identical. Equal values may be shown once. Where a name gives a salt, the structure may show the parent alone.
Key:
[1] = system: MB49 bladder cancer in situ; test: Doxorubicin (ADM)/R848 mixed lyophilized powder in bladder perfusion treatment of bladder tumor, tumor mass (Example G3); type: in vivo, mice; conditions: after two bladder perfusions; compound formulation with hydroxypropyl methylcellulose as penetration enhancer
Protocol: Example G3: Application of doxorubicin (ADM) used in combination with resiquimod (R848) in the treatment of bladder tumor.
The in-situ models of bladder cancer in mice were established by the same method as in Example G1, the mixed lyophilized powder formulation of doxorubicin and […] was prepared for later use, and the mice were randomly divided into groups (Blank: perfusion of 5% glucose solution: ADM: perfusion of the […] solution dissolved in normal saline: R848: perfusion of the resiquimod suspension dispersed in 5% glucose solution: ADM+R848: perfusion of the mixed lyophilized powder formulation of […] and resiquimod dissolved in 5% glucose solution), wherein hydroxypropyl methylcellulose was added as a penetration enhancer component before the compound formulation was used for bladder perfusion treatment. After two times of the bladder perfusion in each group, the bladder cancer in the mice was obtained by dissection, and the tumor mass was recorded.

[2] = system: bladder in situ tumor (fLuc-MB49 cells); test: Combined perfusion of EPI and R837 hydrochloride in different ratios for bladder in situ tumor, fluorescence imaging and survival (Example B4); type: in vivo, mice; conditions: for Survival rate: 14th day
[3] = system: MB49 bladder cancer in situ; test: Pirarubicin (THP)/R837 mixed lyophilized powder in bladder perfusion treatment of bladder cancer, tumor mass (Example G2); type: in vivo, mice; conditions: after two bladder perfusions, from tumor mass
Protocol: Example G2: Application of pirarubicin (THP) used in combination with R837 in the treatment of bladder cancer.
The mice were randomly divided into the following groups:
THP: perfusion of the pirarubicin solution dissolved in 5% glucose solution;
After two times of bladder perfusion treatment, the bladder cancer in the mice was obtained by dissection, and the tumor mass was recorded. […] The Guinness formula q=E(A+B)/(EA+EB−EA*EB) is used to calculate the drug synergy, wherein E(A+B) is the tumor inhibition rate in the compound formulation treatment group, and EA and EB are the tumor inhibition rates when the two components are used respectively.

[4] = General formulation study of simple mixtures of epirubicin and imiquimod (stability, solubility versus pH); type: physicochemical
[5] = system: bladder in situ tumor (fLuc-MB49 cells); conditions: mouse, in vivo
bladder cancer = conditions: TMX-101 gel formulation containing R837, bladder perfusion; cited from earlier work
[6] = system: bladder in situ tumor (fLuc-MB49 cells); test: Combined perfusion of THP and R837 hydrochloride for bladder in situ tumor, in vivo fluorescence imaging and survival (Example B2); set-up: species or system mice; conditions: until 35 days
[7] = 1-9 days, two perfusions; EPI 60 μg, R837 360 μg; compared with blank group
Protocol: Six mice in each of the four groups were perfused with the same dose of blank ultrapure water (ddH2O), R837 (360 μg), EPI (60 μg) and EPI (60 μg)+R837 (360 μg) for 1 hour, once a week, twice, and the body weight was recorded every other day. […] Next, we used a similar method to evaluate whether there was a usage range for the attenuation effect when EPI and R837 were used in combination in a mass ratio (1:10). Six mice in each of the four groups were perfused with the same dose of blank ultrapure water (ddH2O), R837 (600 μg), EPI (60 μg) and EPI (60 μg)+R837 (600 μg) for 1 hour, and the body weights was recorded every other day.

[8] = Day 0 (before the first perfusion)

Row | SMILES | tumor inhibition rate [1] | Survival rate [2] | Mean fluorescence intensity of bladder in situ tumor tissue, group Mean [2, 8] | Mean fluorescence intensity of bladder in situ tumor tissue, group Mean ([2]; Day 7) | Mean fluorescence intensity of bladder in situ tumor tissue, group Mean ([2]; Day 14) | tumor inhibition rate [3] | also measured
1 | CCOCc1nc2c(N)nc3ccccc3c2n1CC(C)(C)O [Sample R848, resiquimod] | 21.8% | – | – | – | – | – | –
2 | CC(C)Cn1cnc2c(N)nc3ccccc3c21 [Sample R837, imiquimod] | – | 100% | 1.877 10^5 | 5.922 10^5 | 9.287 10^5 | 38.33% | Mean fluorescence intensity of bladder in situ tumor tissue (single mice) ([2]; Day 7, listed as B4-2): 6.37 10^5 and 5.49 10^5 and 5.35 10^5 and 6.92 10^5 and 6.05 10^5; Mean fluorescence intensity of bladder in situ tumor tissue (single mice) ([2]; Day 14, listed as B4-2): 7.97 10^5 and 10.2 10^5 and 9.04 10^5 and 12.7 10^5 and 7.53 10^5 and 8.28 10^5; pH above which imiquimod precipitates from the solution [4]: > 5.0; tumor fluorescence intensity / tumor inhibition effect [5]: no significant tumor inhibition effect; safety in clinical trial (bladder cancer): good safety
3 | COc1cccc2c1C(=O)c1c(O)c3c(c(O)c1C2=O)C[C@@](O)(C(=O)CO)C[C@@H]3O[C@H]1C[C@H](N)[C@H](O[C@@H]2CCCCO2)[C@H](C)O1 [THP, pirarubicin hydrochloride] | – | – | – | – | – | 28.23% | Survival rate [6]: 60%
4 | COc1cccc2c1C(=O)c1c(O)c3c(c(O)c1C2=O)C[C@@](O)(C(=O)CO)C[C@@H]3O[C@H]1C[C@H](N)[C@H](O)[C@H](C)O1 [DOX, doxorubicin hydrochloride] | 8.6% | – | – | – | – | – | –
5 | COc1cccc2c1C(=O)c1c(O)c3c(c(O)c1C2=O)C[C@@](O)(C(=O)CO)C[C@@H]3O[C@H]1C[C@H](N)[C@@H](O)[C@H](C)O1 [EPI, epirubicin hydrochloride] | – | 67% | 1.957 10^5 | 3.893 10^5 | 10.8 10^5 | – | Mean fluorescence intensity of bladder in situ tumor tissue (single mice) ([2]; Day 14, listed as B4-3, hydrochloride): 12.8 10^5 and 10.9 10^5 and 8.7 10^5; body weights of the mice [7]: significantly lower

Reference: patent publication US20240398841A1, “BLADDER PERFUSION PHARMACEUTICAL COMPOSITION, PREPARATION METHOD THEREFOR AND APPLICATION THEREOF” (priority 2020, published 2024)
